# Experimental data from patent US20240133877A1, “PRODUCTS AND METHODS FOR MONITORING ADHERENCE TO NUCLEOSIDE REVERSE TRANSCRIPTASE INHIBITOR THERAPY” (priority 2017, published 2024).
# “And” between values parts separate entries of the source, which are not always exact repeats. Equal values may be shown once.
# Columns and labels:
# [1] = red blood cells and dried blood spots; cited from earlier work
# [2] = test system: anti-TFV antibodies conjugated to colloidal gold; assay: Negative readout lateral flow assay, TFV-DP in whole blood; format: binding; set-up: Visual Read Results / Test Line Visual Read Results: scale not given here; conditions: for TFV-DP conversion to TFV: phosphatase 30 minutes; for Visual Read Results: WB with phosphatase
# Description: […] Samples were diluted by 1:10 or 1:2 and loaded onto negative readout lateral flow assays. Visual reads were made at 10- and 15-minute time points.
# Samples were loaded onto negative readout lateral flow assays. Visual reads were made at 10- and 15-minute time points. Results are shown in FIGS. 11A and 11B and Table 10.
# [3] = test system: anti-TFV monoclonal antibody-HRP conjugates; assay: Whole-blood TFV-DP ELISA with phosphatase; format: binding; conditions: for OD Value: replicates
# Description: ELISA plates and reagents were equilibrated at room temperature. 50 μL of TFV-DP standard were plated onto a dilution plate in triplicate to generate a standard curve. TFV-DP standards were 250, 100, 50, 25, 10, 5, and 1 ng/mL, along with a blank. 50 μL of whole blood samples were added in duplicate or triplicate.
# […] 25 μL of conjugate solution containing anti-TFV monoclonal antibody-HRP conjugates was added to each well.
# The dilution plate was covered and incubated at 25° C. for 30 minutes with shaking at 300-600 rpm. After incubation, the total volume of the dilution plate wells was transferred to an ELISA plate pre-coated with tenofovir-BSA conjugate (TFV-BSA). The ELISA plate was covered and incubated at 25° C. for 30 minutes with shaking at 300-600 rpm. The ELISA plate was washed with 350 μL per well of wash buffer for a total of 6 cycles, with a final aspirate.
# 100 μL of TMB substrate was added to each well. The ELISA plate was incubated in the dark at 25° C. for 30 minutes. 100 μL of stop solution was added to each well to quench the reactions. Absorbance was measured at 450 (primary) and 630 (reference) nm wavelengths within 15 minutes of quenching the reactions. OD was calculated by subtracting the reference absorbance from the primary absorbance. A standard curve was generated using a 4-parameter logistic regression or a 5-parameter logistic regression. The percent inhibition was calculated using the following formula: […]
# [4] = test system: anti-TFV antibodies conjugated to colloidal gold; assay: Negative readout lateral flow assay, TFV-DP in PBS; format: binding
# From the text: […] Samples were loaded onto negative readout lateral flow assays. Lateral flow assays had anti-TFV antibodies conjugated to colloidal gold at the conjugate pad and TFV derivates striped at the test line. Visual reads were made at 10- and 15-minute time points.
smiles,measurement,setting,value
"C[C@H](Cn1cnc2c(N)ncnc21)OCP(=O)(O)OP(=O)(O)OP(=O)(O)O [TFV-DP, tenofovir diphosphate]",accumulation from the first dose to steady state,[1],25 fold
same,half-life,[1],17 days
same,TFV-DP conversion to TFV,"[2]; WB 975 and 325 ng/mL, diluted 1:10 or 1:2",Conversion of TFV-DP to TFV was observed
same,TFV-DP conversion to TFV,"[2]; WB 975 and 325 ng/mL, no further dilution",Conversion of TFV-DP to TFV was observed
same,TFV-DP conversion to TFV,"[2]; WB 1000-12000 ng/mL, diluted 1:10",Conversion of TFV-DP to TFV was observed
same,Test Line Visual Read Results,"[2]; WB diluted 1:10, 1000 ng/ml, 10 minutes",7
same,Test Line Visual Read Results,"[2]; WB diluted 1:10, 1000 ng/ml, 15 minutes",7
same,Test Line Visual Read Results,"[2]; WB diluted 1:10, 2000 ng/ml, 10 minutes",7
same,Test Line Visual Read Results,"[2]; WB diluted 1:10, 2000 ng/ml, 15 minutes",7
same,Test Line Visual Read Results,"[2]; WB diluted 1:10, 3000 ng/ml, 10 minutes",7
same,Test Line Visual Read Results,"[2]; WB diluted 1:10, 3000 ng/ml, 15 minutes",7
same,Test Line Visual Read Results,"[2]; WB diluted 1:10, 3250 ng/ml, 10 minutes",7
same,Test Line Visual Read Results,"[2]; WB diluted 1:10, 3250 ng/ml, 15 minutes",7
same,Test Line Visual Read Results,"[2]; WB diluted 1:10, 4000 ng/ml, 10 minutes",6
same,Test Line Visual Read Results,"[2]; WB diluted 1:10, 4000 ng/ml, 15 minutes",6
same,Test Line Visual Read Results,"[2]; WB diluted 1:10, 5000 ng/ml, 10 minutes",5
same,Test Line Visual Read Results,"[2]; WB diluted 1:10, 5000 ng/ml, 15 minutes",5
same,Test Line Visual Read Results,"[2]; WB diluted 1:10, 6000 ng/ml, 10 minutes",5
same,Test Line Visual Read Results,"[2]; WB diluted 1:10, 6000 ng/ml, 15 minutes",5
same,Test Line Visual Read Results,"[2]; WB diluted 1:10, 7000 ng/ml, 10 minutes",5
same,Test Line Visual Read Results,"[2]; WB diluted 1:10, 7000 ng/ml, 15 minutes",5
same,Test Line Visual Read Results,"[2]; WB diluted 1:10, 8000 ng/ml, 10 minutes",5
same,Test Line Visual Read Results,"[2]; WB diluted 1:10, 8000 ng/ml, 15 minutes",5
same,Test Line Visual Read Results,"[2]; WB diluted 1:10, 9000 ng/ml, 10 minutes",4
same,Test Line Visual Read Results,"[2]; WB diluted 1:10, 9000 ng/ml, 15 minutes",4
same,Test Line Visual Read Results,"[2]; WB diluted 1:10, 9750 ng/ml, 10 minutes",4
same,Test Line Visual Read Results,"[2]; WB diluted 1:10, 9750 ng/ml, 15 minutes",4
same,Test Line Visual Read Results,"[2]; WB diluted 1:10, 10000 ng/ml, 10 minutes",4
same,Test Line Visual Read Results,"[2]; WB diluted 1:10, 10000 ng/ml, 15 minutes",4
same,Test Line Visual Read Results,"[2]; WB diluted 1:10, 11000 ng/ml, 10 minutes",4
same,Test Line Visual Read Results,"[2]; WB diluted 1:10, 11000 ng/ml, 15 minutes",4
same,Test Line Visual Read Results,"[2]; WB diluted 1:10, 12000 ng/ml, 10 minutes",3
same,Test Line Visual Read Results,"[2]; WB diluted 1:10, 12000 ng/ml, 15 minutes",3
same,Visual Read Results,"[2]; diluted 1:10 or 1:2, 325 ng/ml, 10 minutes",6
same,Visual Read Results,"[2]; diluted 1:10 or 1:2, 325 ng/ml, 15 minutes",6
same,Visual Read Results,"[2]; diluted 1:10 or 1:2, 975 ng/ml, 10 minutes",4
same,Visual Read Results,"[2]; diluted 1:10 or 1:2, 975 ng/ml, 15 minutes",4
same,Visual Read Results,"[2]; no further dilution (Table 10), 325 ng/ml, 10 minutes",3/4
same,Visual Read Results,"[2]; no further dilution (Table 10), 325 ng/ml, 15 minutes",3/4
same,Visual Read Results,"[2]; no further dilution (Table 10), 975 ng/ml, 10 minutes",0
same,Visual Read Results,"[2]; no further dilution (Table 10), 975 ng/ml, 15 minutes",0
same,% Inhibition,[3]; No Phosphatase,33.05%
same,OD Average,[3]; No Phosphatase,1.0986
same,OD Value,[3]; No Phosphatase,1.088 and 1.2148 and 1.2340 and 1.1083
same,% Inhibition,[3]; Phosphatase,76.63%
same,OD Average,[3]; Phosphatase,0.3835
same,OD Value,[3]; Phosphatase,0.3853 and 0.3923 and 0.3798 and 0.3766
same,Visual Read Results (Enzyme Present),"[4]; 325 ng/mL, 10 minutes",5
same,Visual Read Results (No Enzyme Present),"[4]; 325 ng/mL, 10 minutes",8
same,Visual Read Results (Enzyme Present),"[4]; 325 ng/mL, 15 minutes",5/6
same,Visual Read Results (No Enzyme Present),"[4]; 325 ng/mL, 15 minutes",8
same,Visual Read Results (Enzyme Present),"[4]; 1300 ng/mL, 10 minutes",3
same,Visual Read Results (No Enzyme Present),"[4]; 1300 ng/mL, 10 minutes",7
same,Visual Read Results (Enzyme Present),"[4]; 1300 ng/mL, 15 minutes",3
same,Visual Read Results (No Enzyme Present),"[4]; 1300 ng/mL, 15 minutes",7
same,Visual Read Results (Enzyme Present),"[4]; 3250 ng/mL, 10 minutes",0/1
same,Visual Read Results (No Enzyme Present),"[4]; 3250 ng/mL, 10 minutes",6
same,Visual Read Results (Enzyme Present),"[4]; 3250 ng/mL, 15 minutes",0/1
same,Visual Read Results (No Enzyme Present),"[4]; 3250 ng/mL, 15 minutes",6
same,TFV-DP conversion to TFV,"[4]; phosphatase from sweet potato extract, 30 minutes",Conversion of TFV-DP to TFV was observed
same,TFV-DP conversion to TFV,[4]; without phosphatase treatment,No conversion of TFV-DP to TFV was observed
